Measured values from ChEMBL document CHEMBL1143091, “Synthesis and SAR studies of biaryloxy-substituted triazoles as antifungal agents” (2008).
Values after ≈ are worked out from the molar mass of the structure shown.

Columns and labels:
Aspergillus fumigatus = test: Antimicrobial activity against Aspergillus fumigatus isolates; type: functional
Fonsecaea compacta = test: Antimicrobial activity against Fonsecaea compacta isolates; type: functional
Candida parapsilosis [1] = test: Antimicrobial activity against […] isolates; type: functional; settings: Lodderomyces parapsilosis
Nannizzia gypsea = test: Antimicrobial activity against Microsporum gypseum isolates; type: functional
Cryptococcus neoformans = test: Antimicrobial activity against Cryptococcus neoformans ATCC 32609; type: functional
Trichophyton rubrum = test: Antimicrobial activity against Trichophyton rubrum isolates; type: functional
Candida albicans = test: Antimicrobial activity against Candida albicans ATCC 76615; type: functional
Candida tropicalis = test: Antimicrobial activity against Candida tropicalis isolates; type: functional
Candida parapsilosis [2] = test: Antimicrobial activity against Candida parapsilosis isolates; settings: Lodderomyces parapsilosis

MIC (Aspergillus fumigatus)	MIC (Fonsecaea compacta)	MIC (Candida parapsilosis [1])	MIC (Nannizzia gypsea)	MIC (Cryptococcus neoformans)	MIC (Trichophyton rubrum)	MIC (Candida albicans)	MIC (Candida tropicalis)	MIC (Candida parapsilosis [2])	Structure (SMILES)
> 64 mg/L	1 mg/L (≈ 2.22 µM)	0.0039 mg/L (≈ 0.00866 µM)	1 mg/L (≈ 2.22 µM)	1 mg/L (≈ 2.22 µM)	1 mg/L (≈ 2.22 µM)	0.0039 mg/L (≈ 0.00866 µM)	0.0156 mg/L (≈ 0.0346 µM)		ON=Cc1ccc(-c2ccc(OCC(O)(Cn3cncn3)c3ccc(F)cc3F)cc2)cc1 (stereo not given)
4 mg/L (≈ 7.79 µM)	4 mg/L (≈ 7.79 µM)		> 64 mg/L	1 mg/L (≈ 1.95 µM)	0.25 mg/L (≈ 0.487 µM)	0.25 mg/L (≈ 0.487 µM)	0.25 mg/L (≈ 0.487 µM)	0.0625 mg/L (≈ 0.122 µM)	OC(COc1ccc(-c2ccc(NCc3ccccc3)nc2)cc1)(Cn1cncn1)c1ccc(F)cc1F (stereo not given)
4 mg/L (≈ 6.4 µM)	1 mg/L (≈ 1.6 µM)		1 mg/L (≈ 1.6 µM)	1 mg/L (≈ 1.6 µM)	0.25 mg/L (≈ 0.4 µM)	0.0625 mg/L (≈ 0.1 µM)	0.0625 mg/L (≈ 0.1 µM)	0.0625 mg/L (≈ 0.1 µM)	O=C(Nc1ccc(-c2ccc(OCC(O)(Cn3cncn3)c3ccc(F)cc3F)cc2)cn1)c1ccc(CN2CCCCC2)cc1 (stereo not given)
> 64 mg/L	0.25 mg/L (≈ 0.574 µM)		0.25 mg/L (≈ 0.574 µM)	1 mg/L (≈ 2.3 µM)	1 mg/L (≈ 2.3 µM)	0.0625 mg/L (≈ 0.144 µM)	0.25 mg/L (≈ 0.574 µM)	> 64 mg/L	O=Cc1ccc(-c2ccc(OCC(O)(Cn3cncn3)c3ccc(F)cc3F)cc2)cc1 (stereo not given)
> 64 mg/L	1 mg/L (≈ 1.82 µM)		0.25 mg/L (≈ 0.456 µM)	1 mg/L (≈ 1.82 µM)	0.25 mg/L (≈ 0.456 µM)	0.0625 mg/L (≈ 0.114 µM)	0.0156 mg/L (≈ 0.0284 µM)	0.0625 mg/L (≈ 0.114 µM)	O=C(CN1CCCCC1)Nc1ccc(-c2ccc(OCC(O)(Cn3cncn3)c3ccc(F)cc3F)cc2)cn1 (stereo not given)
4 mg/L (≈ 8.09 µM)	1 mg/L (≈ 2.02 µM)		1 mg/L (≈ 2.02 µM)	16 mg/L (≈ 32.4 µM)	1 mg/L (≈ 2.02 µM)	0.0625 mg/L (≈ 0.126 µM)	0.25 mg/L (≈ 0.506 µM)	0.25 mg/L (≈ 0.506 µM)	CNCC(=O)Nc1ccc(-c2ccc(OCC(O)(Cn3cncn3)c3ccc(F)cc3F)cc2)cn1 (stereo not given)
> 64 mg/L	1 mg/L (≈ 1.82 µM)		1 mg/L (≈ 1.82 µM)	64 mg/L (≈ 116 µM)	1 mg/L (≈ 1.82 µM)	16 mg/L (≈ 29.1 µM)	1 mg/L (≈ 1.82 µM)	4 mg/L (≈ 7.28 µM)	O=C(CN1CCNCC1)Nc1ccc(-c2ccc(OCC(O)(Cn3cncn3)c3ccc(F)cc3F)cc2)cn1 (stereo not given)
> 64 mg/L	1 mg/L (≈ 1.92 µM)		1 mg/L (≈ 1.92 µM)	1 mg/L (≈ 1.92 µM)	0.25 mg/L (≈ 0.479 µM)	0.25 mg/L (≈ 0.479 µM)	0.25 mg/L (≈ 0.479 µM)	1 mg/L (≈ 1.92 µM)	CCCCCCCNc1ccc(-c2ccc(OCC(O)(Cn3cncn3)c3ccc(F)cc3F)cc2)cn1 (stereo not given)
> 64 mg/L	1 mg/L (≈ 1.89 µM)		4 mg/L (≈ 7.55 µM)	> 64 mg/L	> 64 mg/L	0.0625 mg/L (≈ 0.118 µM)	0.0156 mg/L (≈ 0.0295 µM)	0.0625 mg/L (≈ 0.118 µM)	Oc1ccc(CNc2ccc(-c3ccc(OCC(O)(Cn4cncn4)c4ccc(F)cc4F)cc3)cn2)cc1 (stereo not given)
> 64 mg/L	16 mg/L (≈ 33.3 µM)		16 mg/L (≈ 33.3 µM)	64 mg/L (≈ 133 µM)	1 mg/L (≈ 2.08 µM)	4 mg/L (≈ 8.32 µM)	1 mg/L (≈ 2.08 µM)	1 mg/L (≈ 2.08 µM)	OCCNCc1ccc(-c2ccc(OCC(O)(Cn3cncn3)c3ccc(F)cc3F)cc2)cc1 (stereo not given)
